Reference: patent publication US20210403485A1, “PYRAZOLOPYRIMIDINE DERIVATIVE AS SELECTIVE TRK INHIBITOR” (SHANDONG LUYE PHARMACEUTICAL CO., LTD., priority 2018, published 2021)
Where two headings read alike, the source gives them in different places.

Legend:
[1] = Animal body weight and general observations, Ba/F3 ETV6-NTRK3 tumor-bearing nude mice
Description: (§1) The mice in groups were intragastrically administrated on the next day, and the animal body weight and the long and short diameters of the tumor were measured once every other day.

ALK = biological target: T1, ALK (Homo sapiens, UniProt Q9UM73); assay: Kinase inhibitory activity (33P-ATP, filtration-binding method, Reaction Biology Corp.); format: biochemical; settings: read-out: Half maximal inhibitory concentration IC50 for kinases, ALK
T1 construct: purchased Reaction Biology Corp
T1 sequence (Q9UM73 19-1620): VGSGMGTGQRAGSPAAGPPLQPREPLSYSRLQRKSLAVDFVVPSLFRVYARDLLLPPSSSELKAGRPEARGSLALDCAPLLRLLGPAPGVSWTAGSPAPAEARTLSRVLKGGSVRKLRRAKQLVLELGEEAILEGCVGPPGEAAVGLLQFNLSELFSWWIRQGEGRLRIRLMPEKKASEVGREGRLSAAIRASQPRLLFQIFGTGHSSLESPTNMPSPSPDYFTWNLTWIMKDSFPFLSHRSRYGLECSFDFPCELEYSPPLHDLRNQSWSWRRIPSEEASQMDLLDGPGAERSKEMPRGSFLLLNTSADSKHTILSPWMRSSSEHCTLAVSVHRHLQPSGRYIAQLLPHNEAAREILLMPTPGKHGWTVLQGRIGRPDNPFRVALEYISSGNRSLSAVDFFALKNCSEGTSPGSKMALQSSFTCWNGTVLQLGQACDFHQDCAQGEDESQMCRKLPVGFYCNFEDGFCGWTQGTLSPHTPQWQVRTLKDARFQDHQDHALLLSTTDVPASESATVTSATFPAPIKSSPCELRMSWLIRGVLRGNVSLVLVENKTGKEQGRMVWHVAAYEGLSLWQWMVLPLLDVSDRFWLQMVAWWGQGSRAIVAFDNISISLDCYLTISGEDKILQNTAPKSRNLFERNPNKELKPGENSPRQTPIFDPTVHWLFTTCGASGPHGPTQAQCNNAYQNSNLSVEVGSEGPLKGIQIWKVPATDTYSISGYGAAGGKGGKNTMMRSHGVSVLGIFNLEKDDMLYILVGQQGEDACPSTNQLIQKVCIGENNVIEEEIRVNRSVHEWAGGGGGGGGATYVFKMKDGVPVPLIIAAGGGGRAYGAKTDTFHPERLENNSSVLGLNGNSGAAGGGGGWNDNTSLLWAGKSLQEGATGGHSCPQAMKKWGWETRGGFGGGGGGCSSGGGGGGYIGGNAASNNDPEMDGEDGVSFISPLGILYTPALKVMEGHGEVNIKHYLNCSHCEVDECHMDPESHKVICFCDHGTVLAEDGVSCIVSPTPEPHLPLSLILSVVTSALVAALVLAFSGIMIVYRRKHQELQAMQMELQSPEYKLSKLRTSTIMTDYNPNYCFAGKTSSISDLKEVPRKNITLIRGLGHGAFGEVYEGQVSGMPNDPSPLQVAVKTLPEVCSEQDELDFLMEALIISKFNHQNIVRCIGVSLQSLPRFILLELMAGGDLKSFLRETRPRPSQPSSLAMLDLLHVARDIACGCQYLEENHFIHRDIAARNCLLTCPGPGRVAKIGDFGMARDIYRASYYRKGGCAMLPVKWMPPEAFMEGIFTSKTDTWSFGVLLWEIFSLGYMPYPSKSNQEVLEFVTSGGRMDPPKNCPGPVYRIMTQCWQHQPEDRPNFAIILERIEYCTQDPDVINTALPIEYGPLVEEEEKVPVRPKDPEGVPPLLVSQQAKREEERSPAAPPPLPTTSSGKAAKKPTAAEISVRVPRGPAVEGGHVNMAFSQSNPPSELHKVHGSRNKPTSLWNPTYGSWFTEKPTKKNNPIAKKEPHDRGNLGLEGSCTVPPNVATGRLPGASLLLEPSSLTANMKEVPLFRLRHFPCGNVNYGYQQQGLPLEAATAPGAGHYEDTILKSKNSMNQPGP
Method in brief: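 Radiometric kinase assay: enzyme-compound mixture preincubated 20 minutes at room temperature, then reaction started with ^33P-ATP and run 120 minutes at room temperature. Filtration-binding readout. Activity expressed relative to DMSO control; IC50 from fitted dose-response curves.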

Ba/F3 SLC34A2-ROS1-WT = biological target: T2, Ba/F3 SLC34A2-ROS1-WT (Homo sapiens, UniProt P08922); assay: Inhibitory activity against cell proliferation (CellTiter-Glo, 72 hours); format: cell-based; settings: read-out: Half maximal inhibitory concentration IC50 of cells, Ba/F3 SLC34A2-ROS1-WT
T2 construct: fused on or other part: N-terminal part of SLC34A2 as fusion partner (part of the key); O95436 (Sodium-dependent phosphate transport protein 2B)
T2 sequence (P08922 whole entry, stated change not applied, the tested form may be a part): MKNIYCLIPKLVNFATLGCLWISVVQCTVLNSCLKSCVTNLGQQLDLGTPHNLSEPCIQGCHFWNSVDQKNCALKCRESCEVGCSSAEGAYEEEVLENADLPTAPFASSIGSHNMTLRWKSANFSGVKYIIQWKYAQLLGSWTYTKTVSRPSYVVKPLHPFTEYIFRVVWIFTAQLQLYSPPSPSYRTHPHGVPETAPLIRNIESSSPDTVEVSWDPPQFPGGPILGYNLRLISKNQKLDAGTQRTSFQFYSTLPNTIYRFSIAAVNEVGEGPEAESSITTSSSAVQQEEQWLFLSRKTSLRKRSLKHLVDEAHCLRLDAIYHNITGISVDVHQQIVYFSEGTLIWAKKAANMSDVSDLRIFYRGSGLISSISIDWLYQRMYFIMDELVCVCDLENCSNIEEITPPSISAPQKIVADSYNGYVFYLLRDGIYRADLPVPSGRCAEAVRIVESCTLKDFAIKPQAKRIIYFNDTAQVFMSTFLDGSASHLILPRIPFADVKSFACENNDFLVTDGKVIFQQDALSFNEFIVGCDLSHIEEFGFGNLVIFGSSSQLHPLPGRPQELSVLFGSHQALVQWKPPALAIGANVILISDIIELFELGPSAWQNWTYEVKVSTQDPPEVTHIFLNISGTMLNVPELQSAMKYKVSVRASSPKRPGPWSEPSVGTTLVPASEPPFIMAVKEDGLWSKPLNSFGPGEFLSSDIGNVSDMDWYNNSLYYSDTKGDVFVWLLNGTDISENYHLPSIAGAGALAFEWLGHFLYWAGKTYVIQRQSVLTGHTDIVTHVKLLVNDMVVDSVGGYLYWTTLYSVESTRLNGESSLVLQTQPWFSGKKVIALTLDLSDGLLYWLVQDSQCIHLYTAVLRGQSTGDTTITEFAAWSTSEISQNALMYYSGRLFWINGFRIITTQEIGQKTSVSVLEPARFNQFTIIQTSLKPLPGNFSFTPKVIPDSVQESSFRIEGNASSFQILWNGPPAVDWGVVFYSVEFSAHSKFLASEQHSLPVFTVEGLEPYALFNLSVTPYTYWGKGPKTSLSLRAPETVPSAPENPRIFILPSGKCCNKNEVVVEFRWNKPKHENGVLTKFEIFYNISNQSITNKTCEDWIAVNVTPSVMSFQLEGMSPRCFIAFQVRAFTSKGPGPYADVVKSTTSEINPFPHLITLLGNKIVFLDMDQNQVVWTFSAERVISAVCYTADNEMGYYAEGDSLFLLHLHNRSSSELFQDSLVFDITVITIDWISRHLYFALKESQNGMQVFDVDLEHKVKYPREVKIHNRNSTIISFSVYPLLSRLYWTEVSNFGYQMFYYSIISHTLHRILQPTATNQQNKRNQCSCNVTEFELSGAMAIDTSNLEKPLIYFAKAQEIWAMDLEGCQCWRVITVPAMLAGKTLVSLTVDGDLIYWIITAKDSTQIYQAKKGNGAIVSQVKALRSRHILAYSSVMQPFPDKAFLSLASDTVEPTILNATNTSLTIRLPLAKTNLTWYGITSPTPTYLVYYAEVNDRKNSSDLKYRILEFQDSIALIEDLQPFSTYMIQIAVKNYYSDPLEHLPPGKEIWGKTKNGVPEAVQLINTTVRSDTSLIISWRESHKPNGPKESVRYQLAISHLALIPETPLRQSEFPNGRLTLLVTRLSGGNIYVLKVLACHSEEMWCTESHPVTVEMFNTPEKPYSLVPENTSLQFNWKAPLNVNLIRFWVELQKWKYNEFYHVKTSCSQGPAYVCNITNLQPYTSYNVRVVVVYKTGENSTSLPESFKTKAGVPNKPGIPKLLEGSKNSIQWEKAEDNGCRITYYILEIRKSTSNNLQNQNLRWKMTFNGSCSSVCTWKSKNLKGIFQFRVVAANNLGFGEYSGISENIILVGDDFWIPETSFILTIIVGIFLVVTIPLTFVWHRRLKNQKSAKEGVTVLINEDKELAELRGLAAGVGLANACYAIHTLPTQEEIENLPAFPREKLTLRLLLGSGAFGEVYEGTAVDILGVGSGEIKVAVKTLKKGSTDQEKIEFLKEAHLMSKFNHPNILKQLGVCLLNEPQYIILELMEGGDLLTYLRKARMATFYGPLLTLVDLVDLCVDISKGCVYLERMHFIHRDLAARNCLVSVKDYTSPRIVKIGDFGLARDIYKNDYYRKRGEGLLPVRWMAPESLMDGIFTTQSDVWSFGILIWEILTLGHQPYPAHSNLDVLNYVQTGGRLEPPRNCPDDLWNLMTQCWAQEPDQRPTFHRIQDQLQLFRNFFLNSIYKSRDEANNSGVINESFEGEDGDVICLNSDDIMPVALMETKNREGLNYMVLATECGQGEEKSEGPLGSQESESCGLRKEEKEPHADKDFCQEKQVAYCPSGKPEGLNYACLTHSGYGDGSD
Method in brief: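 Log-phase Ba/F3 cells (trypan blue viability above 90%) were treated in triplicate with a 9-point, 3-fold compound series. ATP-dependent luminescence was read after CellTiter-Glo addition, and IC50 values came from nonlinear sigmoidal dose-response fits.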

[2] = Pharmacokinetic test of compounds in mice (plasma, LC/MS/MS); format: in vivo, male CD-1 mice; settings: for Vd: read-out: Apparent volume of distribution Vd; for AUC(0-t): read-out: Area under the curve AUC0-last; for half-life: read-out: Half-life T1/2 (converted); for Cmax: read-out: Peak concentration Cmax; for Tmax: read-out: Time to peak Tmax
Description: Experimental purpose: male CD-1 mice aged 7-9 weeks were selected as test animals, and the drug concentrations of the compounds in plasma at different time points after single intravenous injection (IV) and intragastric administration (PO) of the compounds were measured by an LC/MS/MS method, so that the pharmacokinetic behavior of the compounds disclosed herein in mice was studied, and the pharmacokinetic characteristic of the compounds was evaluated.
Drug preparation: the compounds were all prepared into clear solution by taking 5% DMSO+10% solutol+85% water as vehicle, and were used for administration in IV and PO groups. The dose of each compound administered was: IV, 3 mg/kg; PO, 10 mg/kg.

Ba/F3 ETV6-NTRK3 cells = assay: Efficacy test in animals: subcutaneous xenograft, intragastric administration; format: in vivo, nude mice; settings: for TGI (tumor growth inhibition rate): day of dissection; for Tumor inhibition rate (by tumor weight) / Tumor weight: end of the test
Description: Cells in the logarithmic growth phase were collected and resuspended in serum-free medium to a cell concentration of 2-4×10^7 cells/mL. An equal volume of matrigel was added to the cell suspension to achieve a final cell concentration of 1-2×10^7 cells/mL. 0.2 mL of tumor cell suspension was subcutaneously inoculated at the scapula of each nude mouse with the inoculation amount of 2-4×10^6 cells/mouse to prepare the animal models.

[3] = Animal body weight and general observations, Ba/F3 ETV6-NTRK3-G623R tumor-bearing nude mice
Description: as §1

[4] = male, CD-1, mouse, plasma, IV, 3 mg/kg
[5] = male, CD-1, mouse, plasma, PO, 10 mg/kg

C[C@@H]1CCc2ncc(F)cc2[C@H]2CCCN2c2ccn3ncc(c3n2)C(=O)N1 [LOXO-195, reference compound]
Rate of change in body weight (%) of day 11 to day 0 ([1]; 100 mg/kg bid): 4.9% | Body weight ([1]; Day 0, 100 mg/kg bid): 22.7 ± 2.7 g | Body weight ([1]; Day 3, 100 mg/kg bid): 24.4 ± 2.7 g | Body weight ([1]; Day 5, 100 mg/kg bid): 24.9 ± 2.6 g | Body weight ([1]; Day 7, 100 mg/kg bid): 25.1 ± 2.8 g | Body weight ([1]; Day 9, 100 mg/kg bid): 25.4 ± 3.0 g | Body weight ([1]; Day 11, 100 mg/kg bid): 25.2 ± 3.0 g | IC50 (ALK): 274 nM | GI50 (Ba/F3 SLC34A2-ROS1-WT): 36.7 nM | Apparent clearance Cl ([2]; IV, 3 mg/kg): 11.8 mL/min/kg | Bioavailability F % ([2]; PO, 10 mg/kg): 74% | Vd [2, 4]: 0.5 L/kg | AUC(0-t) [2, 4]: 11.1 µM·h | half-life [2, 4]: 71.4 min | AUC(0-t) [2, 5]: 27.3 µM·h | Cmax [2, 5]: 12.7 µM | Tmax [2, 5]: 22.8 min | Tumor volume (Ba/F3 ETV6-NTRK3 cells; Day 0, 100 mg/kg bid): 303.85 ± 42.83 mm^3 | Tumor volume (Ba/F3 ETV6-NTRK3 cells; Day 3, 100 mg/kg bid): 351.06 ± 144.65 mm^3 | Tumor volume (Ba/F3 ETV6-NTRK3 cells; Day 5, 100 mg/kg bid): 216.92 ± 62.19 mm^3 | Tumor volume (Ba/F3 ETV6-NTRK3 cells; Day 7, 100 mg/kg bid): 174.13 ± 102.49 mm^3 | Tumor volume (Ba/F3 ETV6-NTRK3 cells; Day 9, 100 mg/kg bid): 206.69 ± 107.53 mm^3 | Tumor volume (Ba/F3 ETV6-NTRK3 cells; Day 11, 100 mg/kg bid): 196.07 ± 88.87 mm^3 | TGI (tumor growth inhibition rate) (Ba/F3 ETV6-NTRK3 cells; 100 mg/kg bid): 94.80% | Tumor inhibition rate (by tumor weight) (Ba/F3 ETV6-NTRK3 cells; 100 mg/kg bid): 94.86% | Tumor weight (Ba/F3 ETV6-NTRK3 cells; 100 mg/kg bid): 0.09 ± 0.07 g | Rate of change in body weight (%) of day 11 to day 0 ([3]; 100 mg/kg bid): 2.1% | General observations ([3]; 100 mg/kg bid, the 1# animal, possibly associated with the administration operation): developed thorax congestion at D8 and died at D10 | Body weight ([3]; Day 0, 100 mg/kg bid): 23.5 ± 1.2 g | Body weight ([3]; Day 3, 100 mg/kg bid): 24.4 ± 1.1 g | Body weight ([3]; Day 5, 100 mg/kg bid): 24.4 ± 0.9 g | Body weight ([3]; Day 7, 100 mg/kg bid): 24.6 ± 0.9 g | Body weight ([3]; Day 9, 100 mg/kg bid): 24.4 ± 1.2 g | Body weight ([3]; Day 11, 100 mg/kg bid): 24.0 ± 1.7 g

O=C(Nc1cnn2ccc(N3CCC[C@@H]3c3cc(F)ccc3F)nc12)N1CC[C@H](O)C1 [LOXO-101, larotrectinib, reference compound]
Rate of change in body weight (%) of day 11 to day 0 ([1]; 60 mg/kg qd): 4.4% | Body weight ([1]; Day 0, 60 mg/kg qd): 23.8 ± 1.6 g | Body weight ([1]; Day 3, 60 mg/kg qd): 22.9 ± 2.0 g | Body weight ([1]; Day 5, 60 mg/kg qd): 23.6 ± 2.2 g | Body weight ([1]; Day 7, 60 mg/kg qd): 23.9 ± 2.5 g | Body weight ([1]; Day 9, 60 mg/kg qd): 24.2 ± 2.2 g | Body weight ([1]; Day 11, 60 mg/kg qd): 24.7 ± 2.7 g | IC50 (ALK): > 1000 nM | GI50 (Ba/F3 SLC34A2-ROS1-WT): > 1000 nM | Apparent clearance Cl ([2]; IV, 3 mg/kg): 37.4 mL/min/kg | Vd [2, 4]: 0.97 L/kg | AUC(0-t) [2, 4]: 3.12 µM·h | half-life [2, 4]: 23.4 min | AUC(0-t) [2, 5]: 2.89 µM·h | bioavailability ([2]; male, CD-1, mouse, plasma, PO, 10 mg/kg, read-out: Bioavailability F %): 28% | Cmax [2, 5]: 1.55 µM | Tmax [2, 5]: 22.8 min | Tumor volume (Ba/F3 ETV6-NTRK3 cells; Day 0, 60 mg/kg qd): 303.89 ± 50.02 mm^3 | Tumor volume (Ba/F3 ETV6-NTRK3 cells; Day 3, 60 mg/kg qd): 510.07 ± 224.94 mm^3 | Tumor volume (Ba/F3 ETV6-NTRK3 cells; Day 5, 60 mg/kg qd): 490.32 ± 170.06 mm^3 | Tumor volume (Ba/F3 ETV6-NTRK3 cells; Day 7, 60 mg/kg qd): 731.42 ± 372.59 mm^3 | Tumor volume (Ba/F3 ETV6-NTRK3 cells; Day 9, 60 mg/kg qd): 1289.62 ± 757.75 mm^3 | Tumor volume (Ba/F3 ETV6-NTRK3 cells; Day 11, 60 mg/kg qd): 1361.88 ± 710.90 mm^3 | TGI (tumor growth inhibition rate) (Ba/F3 ETV6-NTRK3 cells; 60 mg/kg qd): 63.87% | Tumor inhibition rate (by tumor weight) (Ba/F3 ETV6-NTRK3 cells; 60 mg/kg qd): 63.49% | Tumor weight (Ba/F3 ETV6-NTRK3 cells; 60 mg/kg qd): 0.64 ± 0.44 g | Rate of change in body weight (%) of day 11 to day 0 ([3]; 60 mg/kg qd): 6.8% | Body weight ([3]; Day 0, 60 mg/kg qd): 23.9 ± 1.4 g | Body weight ([3]; Day 3, 60 mg/kg qd): 24.2 ± 1.8 g | Body weight ([3]; Day 5, 60 mg/kg qd): 24.1 ± 2.0 g | Body weight ([3]; Day 7, 60 mg/kg qd): 25.0 ± 2.2 g | Body weight ([3]; Day 9, 60 mg/kg qd): 25.3 ± 2.2 g | Body weight ([3]; Day 11, 60 mg/kg qd): 25.6 ± 2.4 g
